Measured values reported in patent publication US7691904B2, “pH sensitive prodrugs of 2,6-diisopropylphenol” (Auspex Pharmaceuticals, Inc, priority 2003, dated 2010).

Key:
Female mice = experiment: In-vivo induction of anesthesia (graded sedation level after IP injection)
Protocol: Prodrugs were formulated as aqueous isotonic solutions at pH 7.4 in sterile water before administration to animals. Female mice were obtained from Charles River Laboratories (Wilmington, Mass.). The volume of injection was set at […] and animals were dosed IP at 100 mg/kg, 125 mg/kg, 150 mg/kg and 200 mg/kg. The monitoring of distinguishable levels of sedation started immediately after an injection and was continued for a 2-h period post-injection. The sedation level was graded according to the behavioral and reflex activity of animals injected with progressively increasing doses of each compound. Animals were graded as alert and normal when there was no observable change in their behavior; alert with decreased motor activity when ataxia with some ability to walk was observed; and awake and recumbent when loss of righting reflex occurred. Animals reaching somnolence but retaining response to painful stimuli (toe or tail pinch) were graded as sedated with normal reflexes, whereas animals that lost response to painful stimuli were graded as sedated with decreased reflexes (anesthetic level of sedation). Death resulting from the overdose was also recorded as a last level.

[1] = pH stability in pH=4.1 sodium acetate buffer, analyzed by LC-MS; assay type: physicochemical; details: 100 mg in 10 mL pH=4.1 sodium acetate buffer, ambient temperature, 48 hours
Protocol: A solution was prepared by dissolving 100 mg of N-(2-Piperidin-1-yl-ethyl)-succinamic acid 2,6-diisopropylphenyl ester hydrochloride in 10 mL of pH=4.1 sodium acetate buffer. The buffer was prepared by adding NaOH to a 20% aqueous acetic acid solution until the desired pH was reached. The solution was incubated at ambient temperature and analyzed by LC-MS after 48 hours.

SMILES | Duration of anesthesia (Female mice; 150 mg/kg) | End of anesthesia (time post injection, in parentheses) (Female mice; 150 mg/kg, time post injection) | Full anesthesia (Female mice; 150 mg/kg, time post injection) | Onset of sedation (Female mice; 150 mg/kg, time post injection) | Duration of anesthesia (Female mice; 200 mg/kg) | End of anesthesia (time post injection, in parentheses) (Female mice; 200 mg/kg, time post injection) | Full anesthesia (Female mice; 200 mg/kg, time post injection) | Onset of sedation (Female mice; 200 mg/kg, time post injection) | Decomposition in solution [1] | Duration of anesthesia (Female mice; 100 mg/kg) | Full anesthesia (Female mice; 100 mg/kg) | End of effect (time post injection, in parentheses) (Female mice; 100 mg/kg, time post injection) | Onset of sedation (Female mice; 100 mg/kg, time post injection) | Duration of sedation (Female mice; 125 mg/kg) | Full anesthesia (Female mice; 125 mg/kg) | End of sedation (time post injection, in parentheses) (Female mice; 125 mg/kg, time post injection) | Onset of sedation (Female mice; 125 mg/kg, time post injection)
CC(C)c1cccc(C(C)C)c1OC(=O)CCC(=O)NCCN1CCCC1.Cl [N-(2-pyrrolidin-1-yl-ethyl)-succinamic acid 2,6-diisopropylphenyl ester hydrochloride] | 10 min | 14 min | 4 min | 2 min | 21 min | 25 min | 4 min | 2 min |  |  |  |  |  |  |  |  | 
CC(C)c1cccc(C(C)C)c1OC(=O)CCC(=O)NCCN1CCCCC1.Cl [N-(2-piperidin-1-yl-ethyl)-succinamic acid 2,6-diisopropylphenyl ester hydrochloride] |  |  |  |  | 12 min | 16 min | 5 min | 2 min | No trace of decomposition | 11 min | not reached | 13 min | 2 min | 13 min | not reached | 15 min | 2 min
